“Also recorded” adds a separate entry of the source.
How the values were obtained:
LeuT (H7C/R86C) = assay: smFRET imaging of surface-immobilized Cy3/Cy5-labeled LeuT (H7C/R86C), intracellular gate; format: biochemical, Aquifex aeolicus
Procedure: (§1) The inventors acquired fluorescence data using a prism-based TIR microscope, as described (Munro, J. B. et al., Mol. Cell 25, 505-517 (2007)). All experiments were performed in buffer containing 50 mM Tris/MES (pH 7.5), 10% glycerol, 0.02% w/v DDM, 5 mM 2-mercaptoethanol and 200 mM salt (KCl or NaCl, as specified). The inventors used an oxygen scavenging environment (1 unit per μl glucose oxidase, 8 units per μl catalase, 0.1% v/v glucose) containing 1 mM cyclooctatetraene in all experiments to minimize photobleaching (Dave, R. et al., Biophys. J. 96, 2371-2381 (2009)).
(§2) The inventors incubated microfluidic imaging chambers passivated with a mixture of PEG and biotin-PEG (Blanchard, S. C. et al. Proc. Natl Acad. Sci. USA 101, 12893-12898 (2004)) with 0.8 μM streptavidin (Invitrogen), followed by 20 nM biotin-NTA (Biotium) charged with NiCl2. Cy3/Cy5-labeled His10-LeuT molecules (2 nM) were surface-immobilized to surface-bound Ni2+. The inventors observed no significant surface immobilization, measured as described below, in the absence of biotin-NTA.
Cy3 fluorophores were excited by the evanescent wave generated by TIR of a single-frequency light source (Ventus 532 nm, Laser Quanta). Photons emitted from Cy3 and Cy5 were collected using a 1.2 NA 60× water-immersion objective (Nikon), and optical treatments were used to spatially separate Cy3 and Cy5 frequencies onto a cooled, back-thinned CCD (Cascade 128, Photometrics). The inventors acquired fluorescence data using MetaMorph software (Universal Imaging Corporation). The inventors corrected spectral bleed-through of Cy3 intensity on the acceptor channel by subtracting 7.5% of donor signal from the acceptor. FRET traces were calculated as: FRET=ICy5/(ICy3+ICy5), where ICy3 and ICy5 are the instantaneous Cy3 and Cy5 fluorescence intensities, respectively. Using an established procedure (Roy, et al., Nature Methods 5: 507-516 (2008)), The inventors estimated the ratio of donor and acceptor quantum yields and detection efficiencies (γ) to be close to 1; therefore, no correction was applied.
The inventors analyzed fluorescence and FRET traces using automated analysis, in which traces were selected using algorithms implemented in MATLAB (MathWorks). Algorithms for analyzing smFRET data are found in U.S. 61/437,203, which is herein incorporated by reference in its entirety. Properties were calculated for each trace, and selected for further analysis if they met the following specific criteria: a single photobleaching event, at least 8:1 signal-to-background noise ratio (SNR), <4 donor fluorophore blinking events, a donor-to-acceptor Pearson's correlation coefficient <0.5, and a lifetime of at least 15 frames showing FRET ≥0.15. The inventors detected photobleaching events in each trace as a significant (≥3 standard deviations of background noise) drop in the median-filtered (window size of 9 frames) total fluorescence intensity (ITotal=ICy3+ICy5) without a return to the previous average level. Events in which fluorescence intensity did return were marked as blinking events. Signal-to-noise ratios are calculated as total intensity relative to the standard deviation of background noise: ITotal/stdev(ICy3)+stdev(ICy5). The inventors excluded data points corresponding to donor fluorophore dark states from calculation of the correlation coefficient.
To simplify the presentation of FRET histograms, The inventors removed zero-FRET states following idealization of the data to a two-state model (E=0.1±0.1 and E=0.4±0.1) using a segmental k-means algorithm (Qin, F., Biophys. J. 86, 1488-1501 (2004)). Error bars in FRET histograms represent the standard deviation of 100 bootstrap samples of each set of FRET traces examined.
The inventors estimated kinetic parameters for biotinylated H7C-R86C-LeuT samples by manually selecting traces showing at least one transition between clearly distinct states with anti-correlated changes in donor and acceptor fluorescence intensity in each transition. […]

LeuT [1] = assay: Scintillation proximity assay (SPA) binding of 3H-alanine to purified LeuT variants; set-up: species or system Aquifex aeolicus; conditions: 50 mM Na+
Procedure: Scintillation proximity-based binding studies. Binding of ^3H-leucine or ^3H-alanine (146 Ci/mmol and 49.4 Ci/mmol, respectively; Moravek) to purified LeuT-variants was measured with the scintillation proximity assay (SPA) as described (Shi, L. et al., Mol. Cell 30, 667-677 (2008)) with 25 ng of purified protein per assay in buffer composed of 150 mM Tris/Mes, pH 7.5/50 mM NaCl/1 mM TCEP/0.1% n-dodecyl-β-D-maltopyranoside or 50 mM Tris/Mes, pH 7.5/150 mM LiCl/1 mM TCEP/0.1% n-dodecyl-β-D-maltopyranoside. To determine the molar ratio of Leu (or Ala)-to LeuT binding samples were incubated with increasing concentrations of radioligand and measured in the SPA cpm mode of the MircoBeta™ counter (Perkin Elmer). The efficiency of detection was calculated with standard curves of known concentrations of ^3H-Leu or ^3H-Ala. The standard curves were used to transform cpm into the amount of bound substrate (Shi, L. et al., Mol. Cell 30, 667-677 (2008)). The amount of LeuT in the SPA assays was determined (Schaffner, W. et al., Anal. Biochem. 56, 502-514 (1973)). SPA-based binding studies using 2 μM [^22Na]Cl (1017 mCi/mg; Perkin Elmer) were performed in 200 Tris/Mes, pH 7.5/1 mM TCEP/0.1% n-dodecyl-β-D-maltopyranoside in the presence of 0-50 mM NaCl (equimolar replacement of Tris/Mes to obtain a total molarity of 200 mM) (Shi, L. et al., Mol. Cell 30, 667-677 (2008)). […]

LeuT [2] = assay: 3H-Ala transport in LeuT proteoliposomes; format: biochemical, Aquifex aeolicus; conditions: in the presence of Li+ (150 mM)
Procedure: Proteoliposomes were prepared as described (Shi, L. et al., Mol. Cell 30, 667-677 (2008)). The accumulation of ^3H-[…].4 Ci mmol^-1; Moravek) was measured at 23° C. in assay buffer comprised of 150/50 mM Tris/Mes (pH 8.5) and 50 mM NaCl/150 mM LiCl. The reaction was quenched by the addition of ice-cold assay buffer without radiotracer and the proteoliposomes were collected on GF75 glass fiber filters (Advantec) before the determination of the accumulated cpm by liquid scintillation counting.

LeuT (K239C/H480C) = assay: smFRET imaging of extracellularly labeled LeuT K239C/H480C; format: biochemical, Aquifex aeolicus; conditions: 0.5 mM CMI; increased from ~0.49 without CMI
Procedure: as §1
as §2, with “Cy3/Cy5-labeled His10-LeuT molecules (2 nM) were surface-immobilized to surface-bound Ni2+.” left out
(§3) Cy3 fluorophores were excited by the evanescent wave generated by TIR of a single-frequency light source (Ventus 532 nm, Laser Quanta). […] The inventors acquired fluorescence data using MetaMorph software (Universal Imaging Corporation). […] FRET traces were calculated as: FRET=ICy5/(ICy3+ICy5), where ICy3 and ICy5 are the instantaneous Cy3 and Cy5 fluorescence intensities, respectively. […]

LeuT (H7C/T515C) = assay: smFRET imaging of Cy3/Cy5-labeled LeuT H7C/T515C; format: biochemical, Aquifex aeolicus; conditions: saturating Na+ 200 mM
Procedure: as §1
as §2, with “Cy3/Cy5-labeled His10-LeuT molecules (2 nM) were surface-immobilized to surface-bound Ni2+.” left out
as §3

LeuT [3] = conditions: read-out: half-maximum effective concentration (EC50) of Na+ for stimulating binding and transport; cited from earlier work
[4] = molecular target: Y335A dopamine transporter (Homo sapiens, UniProt Q01959, Y335A); conditions: Y335A dopamine transporter mutant; cited from earlier work
[5] = 10 mM Na+ and 250 μM Ala, 0.1 mM CMI or 35 mM OG

Sequence of Y335A dopamine transporter (Q01959 whole entry Y335A): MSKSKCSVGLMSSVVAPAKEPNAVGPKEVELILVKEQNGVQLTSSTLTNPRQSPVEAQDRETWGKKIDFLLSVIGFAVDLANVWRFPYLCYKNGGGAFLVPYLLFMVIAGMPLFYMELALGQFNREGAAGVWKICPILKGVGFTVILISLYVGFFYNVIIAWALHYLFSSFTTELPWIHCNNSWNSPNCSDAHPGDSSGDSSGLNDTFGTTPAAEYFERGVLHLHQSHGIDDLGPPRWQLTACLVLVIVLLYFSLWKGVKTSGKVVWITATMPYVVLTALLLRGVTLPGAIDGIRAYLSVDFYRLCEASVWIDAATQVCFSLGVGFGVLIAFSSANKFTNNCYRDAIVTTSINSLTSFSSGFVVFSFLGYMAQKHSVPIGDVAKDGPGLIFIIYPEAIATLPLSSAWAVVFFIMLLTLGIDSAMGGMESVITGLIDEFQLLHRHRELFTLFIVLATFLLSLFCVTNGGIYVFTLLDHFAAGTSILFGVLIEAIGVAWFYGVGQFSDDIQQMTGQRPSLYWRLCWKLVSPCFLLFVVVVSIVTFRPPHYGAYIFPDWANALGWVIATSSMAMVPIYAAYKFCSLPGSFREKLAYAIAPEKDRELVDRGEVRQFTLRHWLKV

C[C@H](N)C(=O)O [Ala, L-alanine]
effect on FRET distribution (LeuT (H7C/R86C); 2 mM Na+, increasing Ala concentrations): did not shift the FRET distribution toward the closed state
enhancement of transition rates between inward-open and inward-closed states (LeuT (H7C/R86C); 2 mM Na+, as much as): ~4 fold
effect on lifetimes of inward-open or inward-closed states (LeuT (H7C/R86C); Ala alone, nominal absence of Na+): not significantly affected
effect on intracellular gating dynamics (LeuT (H7C/R86C); F253A (S1 site) mutant, 10 mM Na+, 250 μM Ala): failed to increase intracellular gating dynamics
effect on intracellular gating dynamics (LeuT (H7C/R86C); L400S (S2 site) mutant, 10 mM Na+, 250 μM Ala): no increase in intracellular gating dynamics was observed
effect on intracellular gating dynamics (LeuT (H7C/R86C); Li+ in place of Na+ (40 mM Li+), 250 μM Ala): failed to accelerate intracellular gating dynamics
reduction in the rate of gate opening, kclosed-open (LeuT (H7C/R86C); Li+ in place of Na+, 250 μM Ala): ~2 fold
lowering of activation barrier between open and closed states (ΔΔG) (LeuT (H7C/R86C); as much as, conditions of the experiment): ~0.72 kcal/mol
Ala binding to the S2 site (LeuT [1]; F253A mutant): bound stoichiometrically
Ala binding to the S1 site (LeuT [1]; L400S mutant): stoichiometric
substrate transport (LeuT [2]): not observed

CN(C)CCCN1c2ccccc2CCc2ccc(Cl)cc21 [CMI, clomipramine]
FRET value of stabilized high-FRET state (LeuT (H7C/R86C); 0.5 mM CMI, 200 mM KCl, wild-type H7C/R86C): ~0.69
effect on intracellular gating dynamics (LeuT (H7C/R86C); [5]): essentially eliminated the occurrence of intracellular gate opening; also recorded: inhibits these conformational dynamics
FRET between K239C/H480C labels with inhibitor bound (LeuT (K239C/H480C)): ~0.53

CC(C)C[C@H](N)C(=O)O [Leu, L-leucine]
further changes in FRET upon addition of leucine (LeuT (H7C/R86C); 20 μM leucine at 200 mM Na+): did not observe further changes in FRET
stabilization of closed intracellular gate state (LeuT (H7C/R86C); 2 mM Na+, Leu titration): ~3.5 fold
effect of leucine binding on low-/high-FRET populations (LeuT (H7C/R86C); 5 mM Na+, 0.2-20 μM leucine): redistributed the two populations in a concentration-dependent fashion in favour of higher-FRET configurations
FRET value of high-FRET configurations reached by leucine-dependent isomerization (LeuT (H7C/R86C); LeuT-R5A, 7/86 pair, 200 mM NaCl and 20 μM leucine): ~0.77
raising of energy barrier to motion (LeuT (H7C/R86C); as much as, similar to Na+ (50 mM) alone): ~0.96 kcal/mol

[Na+] [Na^+]
preferential stabilization of the inward-closed state (LeuT (H7C/R86C); Na+ titration): ~7 fold
EC50 (LeuT (H7C/R86C); hidden Markov modeling of Na+ titration, read-out: EC50 for altering distribution of low- and high-FRET LeuT conformations): 10.9 mM
dwell time of high FRET state (LeuT (H7C/R86C); high Na+ concentrations, limited by photobleaching): > 76 s
FRET value of stabilized higher-FRET state (LeuT (H7C/R86C); saturating Na+ 200 mM, H7C/R86C): ~0.77
FRET value of stabilized higher-FRET state (LeuT (H7C/T515C)): ~0.73
EC50 (LeuT [3]): ~10 mM

CCCCCCCCO[C@@H]1O[C@H](CO)[C@@H](O)[C@H](O)[C@H]1O [OG, n-octyl-β-D-glucopyranoside]
effect on intracellular gating dynamics (LeuT (H7C/R86C); [5]): inhibited intracellular gating dynamics

[Zn] [zinc]
effect on transport [4]: markedly enhances transport

Reference: US10859569B2, “SmFRET with membrane proteins” (Cornell University, priority 2010, dated 2020)
